Literature values as cited in article PMC7904743, “WIDOCK: a reactive docking protocol for virtual screening of covalent inhibitors” (Journal of Computer-Aided Molecular Design, 2021).
Read-outs that look alike come from different tables or passages of the source.

How the values were obtained:
[1] = thiol reactivity, cited from earlier work
[2] = test system: OTUB2; details: OTUB2 protein labeling; experimental actives if % labeling higher than 50%; cited from earlier work
[3] = test system: NUDT7; details: protein labeling at 200 μM; experimental actives if % labeling higher than 50%; cited from earlier work
[4] = natural log of average kinetic rate constant
[5] = natural log of average rate constant

SMILES	ln(avg k) [1, 4]	ln(avg k) [1, 5]	OTUB2 % labeling [2]	NUDT7 % labeling [3]
O=C(CCl)NCC1CCCc2ccccc21 (stereo not shown) [PCM-0102794, O=C(CCl)NCC1CCCc2ccccc21]	-16.479	-16.479	34%	0%
CC1CN(C(=O)CCl)CC(C)O1 (stereo not shown) [PCM-0102796, CC1CN(C(=O)CCl)CC(C)O1]	-15.522	-15.522	0%	0%
O=C(CCl)Nc1cccc(Cl)c1Cl [PCM-0102797, O=C(CCl)Nc1cccc(Cl)c1Cl]	-15.881	-15.881	0%	15%
CC(NC(=O)CCl)c1ccco1 (stereo not shown) [PCM-0102798, CC(NC(=O)CCl)c1ccco1]	-16.737	-16.737	19%	14%
Cc1cc(Br)ccc1NC(=O)CCl [PCM-0102799, Cc1cc(Br)ccc1NC(=O)CCl]	-16.305	-16.305	61%	24%
O=C(CCl)NCc1nc2ccccc2s1 [PCM-0102803, O=C(CCl)NCc1nc2ccccc2s1]	-16.252	-16.252	37%	0%
NS(=O)(=O)c1ccc(NC(=O)CCl)cc1 [PCM-0102807, NS(=O)(=O)c1ccc(NC(=O)CCl)cc1]	-15.463	-15.463	29%	0%
O=C(CCl)Nc1nc(-c2ccc(F)cc2)cs1 [PCM-0102809, O=C(CCl)Nc1nc(-c2ccc(F)cc2)cs1]	-15.559	-15.559	21%	37%
C#CCN1CCN(C(=O)CCl)CC1 [PCM-0102811, C#CCN1CCN(C(=O)CCl)CC1]	-15.973	-15.973	0%	0%
O=C(CCl)N1CCN(Cc2ccc3c(c2)CCO3)CC1 [PCM-0102814, O=C(CCl)N1CCN(Cc2ccc3c(c2)CCO3)CC1]	-15.537	-15.537	0%	0%
CNC(=O)C1CCN(C(=O)CCl)CC1 [PCM-0102815, CNC(=O)C1CCN(C(=O)CCl)CC1]	-15.403	-15.403	8%	0%
CC(NC(=O)CCl)c1ccc2c(c1)CC(=O)N2 (stereo not shown) [PCM-0102816, CC(NC(=O)CCl)c1ccc2c(c1)CC(=O)N2]	-16.367	-16.367	29%	22%
CC(C)(C)NC(=O)CNC(=O)CCl [PCM-0102817, CC(C)(C)NC(=O)CNC(=O)CCl]	-16.378	-16.378	41%	0%
O=C(CCl)N1CCN(Cc2ccc(Cl)cc2)CC1 [PCM-0102818, O=C(CCl)N1CCN(Cc2ccc(Cl)cc2)CC1]	-15.454	-15.454	17%	0%
Cc1cccc(CNC(=O)CCl)c1 [PCM-0102821, Cc1cccc(CNC(=O)CCl)c1]	-16.579	-16.579	86%	0%
CC1CCc2ccccc2N1C(=O)CCl (stereo not shown) [PCM-0102822, CC1CCc2ccccc2N1C(=O)CCl]	-16.310	-16.310	0%	0%
O=C(CCl)N1CCC2(CC1)OCCO2 [PCM-0102823, O=C(CCl)N1CCC2(CC1)OCCO2]	-16.068	-16.068	0%	0%
O=C(CCl)N1CCCC2CCCCC21 (stereo not shown) [PCM-0102826, O=C(CCl)N1CCCC2CCCCC21]	-16.060	-16.060	0%	7%
COC(=O)C1(NC(=O)CCl)CCC(C)CC1 (stereo not shown) [PCM-0102827, COC(=O)C1(NC(=O)CCl)CCC(C)CC1]	-16.743	-16.743	0%	0%
CCC1CCCCN1C(=O)CCl (stereo not shown) [PCM-0102828, CCC1CCCCN1C(=O)CCl]	-16.282	-16.282	0%	4%
Cc1ccccc1CC(=O)NNC(=O)CCl [PCM-0102829, Cc1ccccc1CC(=O)NNC(=O)CCl]	-17.272	-17.272	30%	0%
CC1CN(C(=O)CCl)CCO1 (stereo not shown) [PCM-0102830, CC1CN(C(=O)CCl)CCO1]	-16.218	-16.218	0%	0%

SMILES	ln(avg k) [1, 4]	ln(avg k) [1, 5]	OTUB2 % labeling [2]	NUDT7 % labeling [3]
CC1CCN(C(=O)CCl)C2CCCCC12 (stereo not shown) [PCM-0102831, CC1CCN(C(=O)CCl)C2CCCCC12]	-15.612	-15.612	0%	37%
O=C(CCl)N(C1CC1)C1CCS(=O)(=O)C1 (stereo not shown) [PCM-0102832, O=C(CCl)N(C1CC1)C1CCS(=O)(=O)C1]	-16.200	-16.200	43%	0%
CC(C)(C)N(Cc1cccc(F)c1)C(=O)CCl [PCM-0102833, CC(C)(C)N(Cc1cccc(F)c1)C(=O)CCl]	-16.964	-16.964	0%	0%
O=C(CCl)N1CCN(S(=O)(=O)c2ccc3ccccc3c2)CC1 [PCM-0102836, O=C(CCl)N1CCN(S(=O)(=O)c2ccc3ccccc3c2)CC1]	-15.169	-15.169	0%	0%
O=C(CCl)N1CCN(S(=O)(=O)c2ccccc2Cl)CC1 [PCM-0102837, O=C(CCl)N1CCN(S(=O)(=O)c2ccccc2Cl)CC1]	-15.224	-15.224	0%	18%
CC(=O)c1sc(NC(=O)CCl)nc1C [PCM-0102838, CC(=O)c1sc(NC(=O)CCl)nc1C]	-16.064	-16.064	0%	12%
COC(=O)C1Cc2ccccc2CN1C(=O)CCl (stereo not shown) [PCM-0102841, COC(=O)C1Cc2ccccc2CN1C(=O)CCl]	-14.128	-14.128	41%	19%
O=C(CCl)Nc1ccc([N+](=O)[O-])cc1Br [PCM-0102848, O=C(CCl)Nc1ccc([N+](=O)[O-])cc1Br]	-16.062	-16.062	0%	24%
CC(C)(C)CCNC(=O)CCl [PCM-0102853, CC(C)(C)CCNC(=O)CCl]	-17.028	-17.028	0%	0%
N#CC1(NC(=O)CCl)CCC1 [PCM-0102854, N#CC1(NC(=O)CCl)CCC1]	-16.080	-16.080	0%	9%
CC(C)(C)C(=O)NNC(=O)CCl [PCM-0102855, CC(C)(C)C(=O)NNC(=O)CCl]	-17.593	-17.593	0%	7%
N#Cc1cccc(C(=O)NNC(=O)CCl)c1 [PCM-0102857, N#Cc1cccc(C(=O)NNC(=O)CCl)c1]	-16.900	-16.900	41%	0%
Cc1ccc(S(C)(=O)=O)cc1NC(=O)CCl [PCM-0102858, Cc1ccc(S(C)(=O)=O)cc1NC(=O)CCl]	-16.253	-16.253	0%	0%
CCOC(=O)N1CCN(C(=O)CCl)CC1 [PCM-0102861, CCOC(=O)N1CCN(C(=O)CCl)CC1]	-17.162	-17.162	0%	0%
O=C(CCl)NC1CCCC(C(F)(F)F)C1 (stereo not shown) [PCM-0102862, O=C(CCl)NC1CCCC(C(F)(F)F)C1]	-16.578	-16.578	14%	0%
CN(Cc1ccsc1)C(=O)CCl [PCM-0102865, CN(Cc1ccsc1)C(=O)CCl]	-16.224	-16.224	0%	9%
O=C(CCl)Nc1ccc2[nH]c(=O)[nH]c2c1 [PCM-0102866, O=C(CCl)Nc1ccc2[nH]c(=O)[nH]c2c1]	-15.702	-15.702	30%	0%
CC1CCCN(C(=O)CCl)C1 (stereo not shown) [PCM-0102867, CC1CCCN(C(=O)CCl)C1]	-16.989	-16.989	0%	0%
O=C(CCl)N(c1ccc(F)cc1)C1C=CS(=O)(=O)C1 (stereo not shown) [PCM-0102868, O=C(CCl)N(c1ccc(F)cc1)C1C=CS(=O)(=O)C1]	-15.576	-15.576	0%	34%
CN(C(=O)CCl)C1=CCCC1 [PCM-0102869, CN(C(=O)CCl)C1=CCCC1]	-17.213	-17.213	0%	0%
O=C(CCl)N1CCOCC1C1CC1 (stereo not shown) [PCM-0102870, O=C(CCl)N1CCOCC1C1CC1]	-15.541	-15.541	0%	17%
